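96-well plates; 48 h exposure; 5 concentrations. Endpoints by linear interpolation between flanking doses. Not reached: highest tested concentration assigned. GI50 = concentration required for 50% inhibition of growth.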 Active and inactive are the calls of the source. No stated cut-off is given here; in the data, active = GI50 up to about 1.1 µM and inactive = higher.
Legend:
Assay in all cases: NCI tumour cell line growth inhibition, 48 h
[1] = test system: HCT-15
[2] = test system: BT-549
[3] = test system: DMS-273
[4] = test system: HOP-62
[5] = test system: Hs-578T
[6] = test system: OVCAR-5
[7] = test system: SNB-78
[8] = test system: UO-31
[9] = test system: SK-MEL-5
[10] = test system: 786-0
[11] = test system: IGROV-1
[12] = test system: HOP-18
[13] = test system: ACHN
[14] = test system: U-251
[15] = test system: OVCAR-3
[16] = test system: SF-295
[17] = test system: SK-OV-3
[18] = test system: RPMI-8226
[19] = test system: SR
[20] = test system: RXF 393
[21] = test system: SNB-19
[22] = test system: DLD-1
[23] = test system: DU-145
[24] = test system: MDA-MB-435
[25] = test system: EKVX
[26] = test system: COLO 205
[27] = test system: NCI-H23
[28] = test system: SW-620
[29] = test system: UACC-62
[30] = test system: M19-MEL
[31] = test system: HL-60
[32] = test system: XF498
[33] = test system: CAKI-1
[34] = test system: T47D
[35] = test system: HT-29
[36] = test system: A498
[37] = test system: PC-3
[38] = test system: KM-20L2
[39] = test system: MCF7
[40] = test system: OVCAR-8
[41] = test system: M14
[42] = test system: MDA-N
[43] = test system: KM12
[44] = test system: Malme-3M
[45] = test system: CCRF-CEM
[46] = test system: NCI-H522
[47] = test system: MDA-MB-231
[48] = test system: LOX IMVI
[49] = test system: MOLT-4
[50] = test system: TK-10
[51] = test system: SK-MEL-28
[52] = test system: SNB-75
[53] = test system: A549
[54] = test system: K562
[55] = test system: HCC 2998
[56] = test system: SN12C
[57] = test system: SF-539
[58] = test system: LXFL 529
[59] = test system: SK-MEL-2
[60] = test system: NCI-H460
[61] = test system: SF-268
[62] = test system: UACC-257
[63] = test system: HOP-92
[64] = test system: OVCAR-4
[65] = test system: HCT-116
[66] = test system: DMS-114
[67] = test system: NCI-H226

Measured: GI50

CN(CO)c1nc(N(C)CO)nc(N(C)CO)n1 [TRIMELAMOL]
9.89 µM: [1]
inactive: [2] 20.9 µM | [3] 7.6 µM | [4] 20 µM | [5] 27.8 µM | [6] 26.4 µM | [7] 9.77 µM | [8] 19 µM | [9] 6.95 µM | [10] 24.2 µM | [11] 23.7 µM | [12] 18.8 µM | [13] 27.5 µM | [14] 19.5 µM | [15] 27.7 µM | [16] 26.8 µM | [17] 21.9 µM | [18] 3.98 µM | [19] 39.6 µM | [20] 11.6 µM | [21] 16.1 µM | [22] 10.2 µM | [23] 25.7 µM | [24] 20.1 µM | [25] 19.7 µM | [26] 8.53 µM | [27] 19.3 µM | [28] 3.51 µM | [29] 13.3 µM | [30] 8.04 µM | [31] 4.75 µM | [32] 5.75 µM | [33] 23.8 µM | [34] 32.1 µM | [35] 23 µM | [36] 23.7 µM | [37] 21.8 µM | [38] 8.85 µM | [39] 16.1 µM | [40] 14.5 µM | [41] 21.8 µM | [42] 20.6 µM | [43] 15.1 µM | [44] 12.8 µM | [45] 5.78 µM | [46] 20.9 µM | [47] 21.5 µM | [48] 9.86 µM | [49] 27.2 µM | [50] 31.8 µM | [51] 13.6 µM | [52] 18.5 µM | [53] 12.8 µM | [54] 18.7 µM

CCCCCCCCCCSC(=O)NC
inactive: [55] 47.2 µM | [3] 29.2 µM | [6] 80.9 µM | [8] 23.4 µM | [9] 20.5 µM | [10] 35.2 µM | [11] 79.8 µM | [56] 25.7 µM | [12] 63 µM | [13] 40.4 µM | [14] 25.8 µM | [57] 35.3 µM | [15] 54.2 µM | [16] 50.1 µM | [17] > 100 µM | [18] 21.9 µM | [58] 49.4 µM | [20] 19.9 µM | [21] 28.8 µM | [22] 36.9 µM | [25] 27.2 µM | [26] 34.9 µM | [27] 30.5 µM | [28] 39.6 µM | [59] 22.5 µM | [29] 35.5 µM | [60] 33.3 µM | [30] 38.1 µM | [31] 19 µM | [32] 21.3 µM | [33] 25.9 µM | [61] 31.8 µM | [35] 29.7 µM | [36] 37.5 µM | [38] > 10 µM | [40] 28 µM | [41] 22.4 µM | [43] 35.2 µM | [44] 36.3 µM | [45] 18.9 µM | [46] 21.3 µM | [48] 32.9 µM | [49] 18.5 µM | [50] 37.9 µM | [62] 27.9 µM | [51] 26.3 µM | [52] 48.8 µM | [53] 37.8 µM | [63] 18.6 µM | [64] 36.7 µM | [54] 25.8 µM
22.6 µM: [1]

S=P(N1CCCC1)(N1CC1)N1CC1
> 100 µM: [1]
inactive: [55] > 100 µM | [3] > 100 µM | [4] > 100 µM | [6] > 100 µM | [7] > 100 µM | [8] > 100 µM | [9] > 100 µM | [10] > 100 µM | [11] > 100 µM | [65] > 100 µM | [56] > 100 µM | [12] > 100 µM | [13] 71.6 µM | [14] > 100 µM | [57] > 100 µM | [15] > 100 µM | [16] > 100 µM | [17] > 100 µM | [66] 99.5 µM | [18] > 100 µM | [19] 83.8 µM | [20] > 100 µM | [21] 84.1 µM | [22] > 100 µM | [25] > 100 µM | [26] > 100 µM | [27] > 100 µM | [28] > 100 µM | [59] > 100 µM | [29] > 100 µM | [60] 32.4 µM | [30] > 100 µM | [31] 56.2 µM | [32] > 100 µM | [33] 49.4 µM | [67] > 100 µM | [61] > 100 µM | [35] > 100 µM | [36] > 100 µM | [38] > 100 µM | [40] > 100 µM | [41] > 100 µM | [43] > 100 µM | [44] > 100 µM | [45] 73.1 µM | [46] 83.9 µM | [48] > 100 µM | [49] 71.4 µM | [50] > 100 µM | [62] > 100 µM | [51] > 100 µM | [52] > 100 µM | [53] > 100 µM | [63] > 10 µM | [64] > 100 µM | [54] > 100 µM
